Laboratory results from US7803769B2 (priority 2006, dated 2010).
Bridge positions count the residues as written; N and C are the ends. Square brackets hold non-standard residues; d marks the D form. Peptide text beside a SMILES is read from it. 1Nal = N[C@@H](Cc1cccc2ccccc12)C(=O)O

Legend:
human Kv1.1 (HEK293) = target: T1, human Kv1.1 (HEK293) (Homo sapiens, UniProt Q09470); experiment: cell-based
T1 construct: expressed in transfected cells; host or cells: HEK293

human Kv1.3 (CHO) = target: T2, human Kv1.3 (CHO) (Homo sapiens, UniProt P22001); experiment: cell-based
T2 construct: expressed in transfected cells
T2 sequence (P22001 whole entry): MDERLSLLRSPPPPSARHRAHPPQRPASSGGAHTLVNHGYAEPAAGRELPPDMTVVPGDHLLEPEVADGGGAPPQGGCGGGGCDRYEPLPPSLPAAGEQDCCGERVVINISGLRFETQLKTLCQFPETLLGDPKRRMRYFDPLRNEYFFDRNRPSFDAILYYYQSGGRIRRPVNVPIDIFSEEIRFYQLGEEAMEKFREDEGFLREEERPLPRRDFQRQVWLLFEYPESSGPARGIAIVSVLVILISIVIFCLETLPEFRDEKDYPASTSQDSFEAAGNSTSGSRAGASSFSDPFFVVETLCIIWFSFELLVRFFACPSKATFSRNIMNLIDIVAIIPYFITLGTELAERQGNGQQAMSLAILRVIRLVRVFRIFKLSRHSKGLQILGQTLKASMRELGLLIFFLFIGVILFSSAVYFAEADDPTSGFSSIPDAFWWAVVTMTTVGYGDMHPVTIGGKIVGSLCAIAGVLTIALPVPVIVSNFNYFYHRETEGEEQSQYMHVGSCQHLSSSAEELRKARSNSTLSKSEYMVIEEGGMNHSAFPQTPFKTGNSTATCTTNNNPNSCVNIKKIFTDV

T1 sequence (Q09470 whole entry): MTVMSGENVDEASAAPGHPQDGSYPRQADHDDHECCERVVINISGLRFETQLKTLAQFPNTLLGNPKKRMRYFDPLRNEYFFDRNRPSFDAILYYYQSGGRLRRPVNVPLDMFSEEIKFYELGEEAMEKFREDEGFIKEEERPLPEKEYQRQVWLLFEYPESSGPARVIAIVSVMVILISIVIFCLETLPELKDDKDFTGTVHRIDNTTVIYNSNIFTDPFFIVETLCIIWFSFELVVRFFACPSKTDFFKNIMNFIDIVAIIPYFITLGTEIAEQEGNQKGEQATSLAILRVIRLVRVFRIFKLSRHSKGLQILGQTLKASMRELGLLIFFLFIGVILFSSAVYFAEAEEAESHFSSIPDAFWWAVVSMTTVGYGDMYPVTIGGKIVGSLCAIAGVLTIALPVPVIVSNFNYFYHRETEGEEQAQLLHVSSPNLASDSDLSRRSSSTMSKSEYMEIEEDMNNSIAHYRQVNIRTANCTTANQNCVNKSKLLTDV

SMILES	IC50 (human Kv1.1 (HEK293)) [nM]	IC50 (human Kv1.3 (CHO)) [nM]
CC[C@H](C)[C@@H]1NC(=O)[C@H](CCCCN)NC(=O)[C@@H](NC(=O)[C@H](CCCCN)NC(=O)[C@@H](NC(=O)[C@H](CC(N)=O)NC(=O)[C@@H](NC(=O)[C@@H](NC(=O)[C@@H](NC(=O)CN)C(C)C)[C@@H](C)CC)[C@@H](C)CC)C(C)C)CSSC[C@@H]2NC(=O)[C@H](CCCCN)NC(=O)CNC(=O)[C@H](Cc3ccccc3)NC(=O)[C@H](CCCNC(=N)N)NC(=O)[C@H](CCSC)NC(=O)[C@H](Cc3cccc4ccccc34)NC(=O)[C@H](C)NC(=O)[C@H](CCCCN)NC(=O)[C@H](CCCCN)NC(=O)[C@@H]3CSSC[C@@H](C(=O)N[C@H](C(=O)N4CCC[C@H]4C(=O)N[C@@H](CCCCN)C(=O)O)[C@@H](C)O)NC(=O)[C@H](Cc4c[nH]cn4)NC(=O)[C@H](CSSC[C@H](NC(=O)[C@H](CCC(N)=O)NC(=O)[C@H](CCCNC(=N)N)NC(=O)[C@H](CO)NC1=O)C(=O)N[C@@H](CC(C)C)C(=O)N[C@@H](CCC(=O)O)C(=O)N1CCC[C@H]1C(=O)N3)NC(=O)[C@H](CCCCN)NC(=O)CNC(=O)[C@H](CC(N)=O)NC(=O)[C@H](CCSC)NC2=O [G22Nal] (H-GVIINVKCKISRQCLEPCKKA[1Nal]MRFGKCMNGKCHCTPK-OH; disulfide 8-28, 14-33, 18-35)	0.426	> 3.33
CC[C@H](C)[C@@H]1NC(=O)[C@H](CCCCN)NC(=O)[C@@H](NC(=O)[C@H](CCCCN)NC(=O)[C@H](CCCNC(=N)N)NC(=O)[C@H](CC(N)=O)NC(=O)[C@@H](NC(=O)[C@@H](NC(=O)[C@@H](NC(=O)CN)C(C)C)[C@@H](C)CC)[C@@H](C)CC)CSSC[C@@H]2NC(=O)[C@H](CCCCN)NC(=O)CNC(=O)[C@H](Cc3ccccc3)NC(=O)[C@H](CCCNC(=N)N)NC(=O)[C@H](CCSC)NC(=O)CNC(=O)[C@H](C)NC(=O)[C@H](CCCCN)NC(=O)[C@H](CCCCN)NC(=O)[C@@H]3CSSC[C@@H](C(=O)N[C@H](C(=O)N4CCC[C@H]4C(=O)N[C@@H](CCCCN)C(=O)O)[C@@H](C)O)NC(=O)[C@H](Cc4c[nH]cn4)NC(=O)[C@H](CSSC[C@H](NC(=O)[C@H](CCC(N)=O)NC(=O)[C@H](CCCNC(=N)N)NC(=O)[C@H](CO)NC1=O)C(=O)N[C@@H](CC(C)C)C(=O)N[C@@H](CCC(=O)O)C(=O)N1CCC[C@H]1C(=O)N3)NC(=O)[C@H](CCCCN)NC(=O)CNC(=O)[C@H](CC(N)=O)NC(=O)[C@H](CCSC)NC2=O [V6R] (H-GVIINRKCKISRQCLEPCKKAGMRFGKCMNGKCHCTPK-OH; disulfide 8-28, 14-33, 18-35)	0.0024	0.00865
CC[C@H](C)[C@@H]1NC(=O)[C@H](CCCCN)NC(=O)[C@@H](NC(=O)[C@H](CCCCN)NC(=O)[C@@H](NC(=O)[C@H](CC(N)=O)NC(=O)[C@@H](NC(=O)[C@@H](NC(=O)[C@@H](NC(=O)CN)C(C)C)[C@@H](C)CC)[C@@H](C)CC)C(C)C)CSSC[C@@H]2NC(=O)[C@H](CCCCN)NC(=O)CNC(=O)[C@H](Cc3ccccc3)NC(=O)[C@H](CCCNC(=N)N)NC(=O)[C@H](CCSC)NC(=O)CNC(=O)[C@H](C)NC(=O)[C@H](CCCCN)NC(=O)[C@H](CCCCN)NC(=O)[C@@H]3CSSC[C@@H](C(=O)N[C@H](C(=O)N4CCC[C@H]4C(=O)N[C@@H](CCCCN)C(=O)O)[C@@H](C)O)NC(=O)[C@H](Cc4c[nH]cn4)NC(=O)[C@H](CSSC[C@H](NC(=O)[C@H](CCC(N)=O)NC(=O)[C@H](CCCNC(=N)N)NC(=O)[C@H](CO)NC1=O)C(=O)N[C@@H](CC(C)C)C(=O)N[C@@H](CCC(=O)O)C(=O)N1CCC[C@H]1C(=O)N3)NC(=O)[C@H](CCCCN)NC(=O)[C@H](Cc1cccc3ccccc13)NC(=O)[C@H](CC(N)=O)NC(=O)[C@H](CCSC)NC2=O [G31Nal] (H-GVIINVKCKISRQCLEPCKKAGMRFGKCMN[1Nal]KCHCTPK-OH; disulfide 8-28, 14-33, 18-35)	< 0.00152	0.0338
CC[C@H](C)[C@H](NC(=O)[C@H](C)NC(=O)CN)C(=O)N[C@H](C(=O)N[C@@H](CC(N)=O)C(=O)N[C@H](C(=O)N[C@@H](CCCCN)C(=O)N[C@H]1CSSC[C@@H]2NC(=O)[C@H](CCCCN)NC(=O)CNC(=O)[C@H](Cc3ccccc3)NC(=O)[C@H](CCCNC(=N)N)NC(=O)[C@H](CCSC)NC(=O)CNC(=O)[C@H](C)NC(=O)[C@H](CCCCN)NC(=O)[C@H](CCCCN)NC(=O)[C@@H]3CSSC[C@@H](C(=O)N[C@H](C(=O)N4CCC[C@H]4C(=O)N[C@@H](CCCCN)C(=O)O)[C@@H](C)O)NC(=O)[C@H](Cc4c[nH]cn4)NC(=O)[C@H](CSSC[C@H](NC(=O)[C@H](CCC(N)=O)NC(=O)[C@H](CCCNC(=N)N)NC(=O)[C@H](CO)NC(=O)[C@H]([C@@H](C)CC)NC(=O)[C@H](CCCCN)NC1=O)C(=O)N[C@@H](CC(C)C)C(=O)N[C@@H](CCC(=O)O)C(=O)N1CCC[C@H]1C(=O)N3)NC(=O)[C@H](CCCCN)NC(=O)CNC(=O)[C@H](CC(N)=O)NC(=O)[C@H](CCSC)NC2=O)C(C)C)[C@@H](C)CC [V2A] (H-GAIINVKCKISRQCLEPCKKAGMRFGKCMNGKCHCTPK-OH; disulfide 8-28, 14-33, 18-35)	0.00994	0.0818
CC[C@H](C)[C@@H]1NC(=O)[C@H](CCCCN)NC(=O)[C@@H](NC(=O)[C@H](CCCCN)NC(=O)[C@@H](NC(=O)[C@H](CC(N)=O)NC(=O)[C@@H](NC(=O)[C@@H](NC(=O)[C@@H](NC(=O)CN)C(C)C)[C@@H](C)CC)[C@@H](C)CC)C(C)C)CSSC[C@@H]2NC(=O)[C@H](CCCCN)NC(=O)CNC(=O)[C@H](Cc3ccccc3)NC(=O)[C@H](CCCNC(=N)N)NC(=O)[C@H](CCSC)NC(=O)CNC(=O)[C@H](C)NC(=O)[C@H](CCCCN)NC(=O)[C@H](Cc3cccc4ccccc34)NC(=O)[C@@H]3CSSC[C@@H](C(=O)N[C@H](C(=O)N4CCC[C@H]4C(=O)N[C@@H](CCCCN)C(=O)O)[C@@H](C)O)NC(=O)[C@H](Cc4c[nH]cn4)NC(=O)[C@H](CSSC[C@H](NC(=O)[C@H](CCC(N)=O)NC(=O)[C@H](CCCNC(=N)N)NC(=O)[C@H](CO)NC1=O)C(=O)N[C@@H](CC(C)C)C(=O)N[C@@H](CCC(=O)O)C(=O)N1CCC[C@H]1C(=O)N3)NC(=O)[C@H](CCCCN)NC(=O)CNC(=O)[C@H](CC(N)=O)NC(=O)[C@H](CCSC)NC2=O [K19Nal] (H-GVIINVKCKISRQCLEPC[1Nal]KAGMRFGKCMNGKCHCTPK-OH; disulfide 8-28, 14-33, 18-35)	< 0.00152	0.0172
CC[C@H](C)[C@@H]1NC(=O)[C@H](CCCCN)NC(=O)[C@@H](NC(=O)[C@H](CCCCN)NC(=O)[C@@H](NC(=O)[C@H](CC(N)=O)NC(=O)[C@@H](NC(=O)[C@@H](NC(=O)[C@@H](NC(=O)CN)C(C)C)[C@@H](C)CC)[C@@H](C)CC)C(C)C)CSSC[C@@H]2NC(=O)[C@H](CCCCN)NC(=O)[C@H](Cc3cccc4ccccc34)NC(=O)[C@H](Cc3ccccc3)NC(=O)[C@H](CCCNC(=N)N)NC(=O)[C@H](CCSC)NC(=O)CNC(=O)[C@H](C)NC(=O)[C@H](CCCCN)NC(=O)[C@H](CCCCN)NC(=O)[C@@H]3CSSC[C@@H](C(=O)N[C@H](C(=O)N4CCC[C@H]4C(=O)N[C@@H](CCCCN)C(=O)O)[C@@H](C)O)NC(=O)[C@H](Cc4c[nH]cn4)NC(=O)[C@H](CSSC[C@H](NC(=O)[C@H](CCC(N)=O)NC(=O)[C@H](CCCNC(=N)N)NC(=O)[C@H](CO)NC1=O)C(=O)N[C@@H](CC(C)C)C(=O)N[C@@H](CCC(=O)O)C(=O)N1CCC[C@H]1C(=O)N3)NC(=O)[C@H](CCCCN)NC(=O)CNC(=O)[C@H](CC(N)=O)NC(=O)[C@H](CCSC)NC2=O [G26Nal] (H-GVIINVKCKISRQCLEPCKKAGMRF[1Nal]KCMNGKCHCTPK-OH; disulfide 8-28, 14-33, 18-35)	1.57	> 3.33
